Measured values published in patent US20060189539A1, “Novel GnRH analogues with antitumour effects and pharmaceutical compositions thereof” (priority 1994, published 2006).
Non-standard residues stand in square brackets, D forms with d. Residues, ends and D or L forms follow the SMILES beside them. dPhe(4-Cl) = N[C@H](Cc1ccc(Cl)cc1)C(=O)O

Experiments:
[1] = system: MCF-7 human mammary carcinoma cell line; assay: Inhibition of colony formation (dose-survival), Example 48; assay type: cell-based
Excerpt: MCF-7 human mammary carcinoma cell line was stabilized in 1973 by Soule et al. from the pleural fluid of a patient suffering from mammary carcinoma. MDA-MB-231 human mammary carcinoma cell line was isolated and stabilized by Cailleau et al. in 1974 similarly from pleural fluid. Both cell lines grow in monolayer. […] MCF-7 cell line is estradiol receptor (ER)-positive containing proteins specifically binding GnRH. Thus, it represents, a useful model system for investigating the direct effect of GnRH mediated by the GnRH receptor. Being ER-negative and GnRH receptor-positive, MDA-MB-231 cell line is similarly suitable to study the direct effect of GnRH. PC3 human prostate carcinoma cell line was stabilized in cell culture by Kaighn et al. in 1979. The cells are of epithelial type and form compact colonies in clonogenic assays. The Ishikawa cell line originates from human endometrial adenocarcinoma [M. Nishida et al.: Acta Obstet. Gynecol. Jpn. 37, 1103-1111 (1985)], it is epithelial in its character and contains steroid-as well as GnRH receptors. The examination gives accurate information about the cell-damaging effect of the substance tested as a function of varying doses. The treatment was carried out once; the colonies formed from the surviving cells were counted after 8-12 days. […] A part of the arrested cells again entered the cycle, an other part of them might be destroyed (apoptosis). […] The treatment was once carried out 24 hours after setting, then the colonies formed were counted after 8-12 days. The cells were treated once after 24 hours with 1-50 μM of various GnRH analogues of Examples above or with 1-50 μM of GnRH-III, respectively. The percentages of inhibition obtained on MCF-7, MDA-MB-231, PC3 and Ishikawa cells, respectively, together with the dose of the active agent used are shown in Table VIII.

[2] = system: MDA-MB-231 human mammary carcinoma cell line; assay: as above; assay type: cell-based
Excerpt: (§1) MCF-7 human mammary carcinoma cell line was stabilized in 1973 by Soule et al. from the pleural fluid of a patient suffering from mammary carcinoma. MDA-MB-231 human mammary carcinoma cell line was isolated and stabilized by Cailleau et al. in 1974 similarly from pleural fluid. Both cell lines grow in monolayer. MCF-7 and MDA-MB-231 human mammary carcinoma cell lines are maintained in plastic flasks (Greiner), in Dulbecco-modified Eagle-MEM (DMEM, GIBCO) liquid nutrient medium containing 10% of fetal calf serum. MCF-7 cell line is estradiol receptor (ER)-positive containing proteins specifically binding GnRH. Thus, it represents, a useful model system for investigating the direct effect of GnRH mediated by the GnRH receptor. Being ER-negative and GnRH receptor-positive, MDA-MB-231 cell line is similarly suitable to study the direct effect of GnRH. PC3 human prostate carcinoma cell line was stabilized in cell culture by Kaighn et al. in 1979. The cells are of epithelial type and form compact colonies in clonogenic assays. The Ishikawa cell line originates from human endometrial adenocarcinoma [M. Nishida et al.: Acta Obstet. Gynecol. Jpn. 37, 1103-1111 (1985)], it is epithelial in its character and contains steroid-as well as GnRH receptors.
(§2) The examination gives accurate information about the cell-damaging effect of the substance tested as a function of varying doses. The treatment was carried out once; the colonies formed from the surviving cells were counted after 8-12 days. […] A part of the arrested cells again entered the cycle, an other part of them might be destroyed (apoptosis). […] In the case of a dose-response investigation, colonies containing less than 15 cells were not counted. 300 cells were put into each Petri dishes of 3.5 cm in diameter. The treatment was once carried out 24 hours after setting, then the colonies formed were counted after 8-12 days. The cells were treated once after 24 hours with 1-50 μM of various GnRH analogues of Examples above or with 1-50 μM of GnRH-III, respectively. The percentages of inhibition obtained on MCF-7, MDA-MB-231, PC3 and Ishikawa cells, respectively, together with the dose of the active agent used are shown in Table VIII.

MXT mouse mammary tumour = assay: In vivo antitumour effect on MXT mouse mammary tumour; set-up: species or system CBA/Ca mice
Method: The MXT mouse mammary carcinoma contains ER and PgR proteins; furthermore, it contains also GnRH receptors; therefore, this in vivo tumor model is suitable for studying both the direct and indirect effects. The treatment of mice bearing MXT mammary tumour was commenced on the day following transplantation. […] The animals were daily treated in s.c. route starting from the day following transplantation of MXT mouse mammary tumour. […] MI-1544: 75 μg/day/animal; MI-1892: 75 μg/day/animal.

human tumor cell lines = assay: Colony formation, Example 48, comparison with control D-Trp6-hGnRH; assay type: cell-based; details: data of Table VIII
Method: as §2
In these studies the D-Trp6-hGnRH analogue (Sigma Co.) commonly used in the tumour therapy was employed as control.

[3] = system: Ishikawa endometrium tumour cell culture; assay: Inhibition of colony formation (dose-survival), Example 48; assay type: cell-based, human; details: 50 μM
Excerpt: as §1, §2

[4] = system: PC3 prostate tumour cell culture; assay: as above; assay type: cell-based, human; details: for % Inhibition of colony formation: 50 μM; for Effect on colony-forming ability: within the dose range used (1-50 μM)
Excerpt: as §1, §2

[5] = system: Ishikawa human endometrium carcinoma cell line; assay: Inhibition of colony formation (dose-survival), Example 18; assay type: cell-based; details: 50 μM
Excerpt: (§3) Human cell lines used in in vitro experiments. MCF-7 human mammary tumour cell line was stabilized in 1973 by Soule et al. from the pleural fluid of mammary carcinoma patients. The cells grow in monolayer and are epithelial in their character. MDA-MB-231 human mammary carcinoma cell line was isolated and stabilized in 1974 by Cailleau et al. similarly from pleural fluid. These cells also grow in monolayer. PC3 human prostate carcinoma cell line was stabilized 20 in 1979 in cell culture by Kaighn et al.; the cells are of simple epithelium type and form compact colonies in clonogenic assays. Ishikawa cell line originated from adenocarcinoma of human endometrium [Nishida et al.: Obstet. Gynecol. Jpn, 37, 25 1103-1111 (1985)], has epithelial character and contains steroid as well as GnRH receptors. Human tumour cell lines are maintained in plastic flasks (Greiner) in Dulbecco-6modified Eagle-MEM (DMEM GIBCO) nutritive medium. The medium used herein contained 10% of fetal calf serum (FCS).
(§4) In the case of cytostatics the cell-damaging effect is not cell-specific. […] One part of the arrested cells again go into the cycle, the other part may perish (apoptosis). […] The investigations were carried out on MCF-7 and MDA-MB-231 human mammary carcinoma cell lines, PC3 human prostate 15 carcinoma cell line and Ishikawa human endometrium carcinoma cell line. Threehundred cells were set into Petri dishes of 3.5 cm in diameter each. The treatment was carried out once, 24 hours following the explantation, then the colonies formed were counted after 9 to 12 days.

[6] = system: MCF-7 human mammary carcinoma cell line; assay: as above; assay type: cell-based; details: 50 μM
Excerpt: as §3, §4

[7] = system: PC3 human prostate carcinoma cell line; assay: as above; assay type: cell-based; details: 50 μM
Excerpt: as §3, §4

Compound	% Inhibition of colony formation ([1]; 50 μM) [%]	% Inhibition of colony formation ([2]; 50 μM) [%]	Inhibitory effect on colony formation compared with control D-Trp6-hGnRH (human tumor cell lines)	% Inhibition of colony formation [3] [%]	also measured
CC(C)C[C@H](NC(=O)[C@@H](Cc1c[nH]c2ccccc12)NC(=O)[C@H](Cc1ccc(O)cc1)NC(=O)[C@H](CO)NC(=O)[C@H](Cc1c[nH]c2ccccc12)NC(=O)[C@H](Cc1c[nH]cn1)NC(=O)[C@@H]1CCC(=O)N1)C(=O)N[C@@H](CCCNC(=N)N)C(=O)N1CCC[C@H]1C(=O)NCC(N)=O [D-Trp6-hGnRH, pGlu-His-Trp-Ser-Tyr-D-Trp-Leu-Arg-Pro-Gly-NH2, reference compound]	36.7	38.7	–	–	% Inhibition of colony formation ([1]; 10 μM): 17.1%; % Inhibition of colony formation ([2]; 10 μM): 15.7%
CC(=O)N[C@H](Cc1c[nH]c2ccccc12)C(=O)N[C@H](Cc1ccc(Cl)cc1)C(=O)N[C@H](Cc1c[nH]c2ccccc12)C(=O)N[C@@H](CO)C(=O)N[C@@H](Cc1ccc(O)cc1)C(=O)N[C@H](CCCCN)C(=O)N[C@@H](CC(C)C)C(=O)N[C@@H](CCCNC(=N)N)C(=O)N1CCC[C@H]1C(=O)N[C@H](C)C(N)=O [MI-1544, Ac-D-Trp^1,3,D-Cpa^2,D-Lys^6, D-Ala^10-hGnRH] (Ac-[dW][dPhe(4-Cl)][dW]SY[dK]LRP[dA]-NH2)	–	–	–	–	Tumour volume as control (%) (MXT mouse mammary tumour; 75 μg/day/animal s.c., day 20): 54%; Inhibition % (MXT mouse mammary tumour; 1 × 75 μg daily s.c.): 46%; Tumour volume as control (%) (MXT mouse mammary tumour; 1 × 75 μg daily s.c., Treatment weeks: 20): 54%
Ac-D-Trp^1,3,D-Cpa2,{Lys[n-poly(N-vinylpyrrolidone-co-maleic acid)-Ahx]}5,[a-Asp(DEA)]6,D-Ala10-GnRH [P-Ahx-1892]	31	–	–	–	–
Glu^6-GnRH-III [Compound 8]	–	25	exceeded the inhibitory effect of control	2	% Inhibition of colony formation [4]: 31%
H-Glu^1, D-Trp^6-hGnRH [Compound 19]	32.7	–	approximated the activity of the control	–	% Inhibition of colony formation ([1]; 10 μM): 16.8%
Lys^5, D-Trp^6-hGnRH [Compound 17]	65	63	twice stronger inhibition	17	% Inhibition of colony formation ([2]; 10 μM): 30%; % Inhibition of colony formation [4]: 18%; Effect on colony-forming ability [4]: weakly inhibited
Lys^5,cyclo[Asp^6-Lys^8]-GnRH-III [Compound 3]	44	–	exceeded the inhibitory effect of control	13	% Inhibition of colony formation [5]: 13%; % Inhibition of colony formation [6]: 44%
Lys^5-GnRH-III [Compound 2]	0	0	–	–	–
Phe^7-GnRH-III [Compound 15]	–	21	weak if any effect	–	–
[Lys(ε-Ac)]^4-GnRH-III [Compound 7]	52	42	exceeded the inhibitory effect of control	14	% Inhibition of colony formation ([2]; 10 μM): 31%; % Inhibition of colony formation [4]: 0%; Effect on colony-forming ability [4]: did not influence
[Lys(ε-Fmoc)]^5-GnRH-III [Compound 1]	–	–	weak if any effect	–	–
[Trp(For-Ind)]^3,7-GnRH-III [Compound 14]	–	–	approximated the activity of the control	24	–
{D-Lys[n-poly(N-vinylpyrrolidone-co-maleic acid)-Gly-Phe-Leu-Gly]}6,-GnRH [P-GFLG-609]	–	–	–	–	% Inhibition of colony formation ([1]; 10 μM): 40%
{Lys[n-poly(N-vinylpyrrolidone-co-maleic acid)-Gly-Phe-Leu-Gly-]}5,cyclo(Asp6-Lys8)-GnRH-III [P-GFLG-Lys5-cyclo(Asp6,Lys8)-GnRH-III]	–	–	–	–	% Inhibition of colony formation [5]: 19%; % Inhibition of colony formation [7]: 100%
